From patent US10508120B2, “TYK2 inhibitors and uses thereof” (Nimbus Lakshmi, Inc., priority 2017, dated 2019) come the findings set out here.

Where two headings read alike, the source gives them in different places.

The target in one test is JAK2 kinase domain (JH1) (Homo sapiens (Human), UniProt O60674). Briefly: JAK2 Radioactive Kinase Assay. Format: biochemical. The following applies: for inhibition at 10 µM: read-out: JAK2 JH1% Inhibition @ 10 μM. The essentials: (§1)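 Each kinase domain is incubated with test compound at 10 μM. Activity is then measured radiometrically and expressed as percent inhibition relative to uninhibited enzyme.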

For test [1], the target named is human TYK2 (JH2domain-pseudokinase) (Homo sapiens (Human), UniProt P29597). Briefly: TYK2 JH2 Domain Binding Assay (KINOMEscan). The essentials: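 Displacement of a DNA-tagged TYK2 JH2 fusion (human, aa G556–D888, HEK293 extract, <0.1 nM) from ligand-coated beads over 1 h at RT; binding buffer PBS/0.05% Tween 20/10 mM DTT/0.1% BSA.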
The target in a further test is Tyk2 kinase domain (DH1) (Homo sapiens (Human), UniProt P29597). Nature of the test: Tyk2 Radioactive Kinase Assay. Conditions: for inhibition at 10 µM: read-out: Tyk2 JH1% Inhibition @ 10 μM. Format: biochemical. The essentials:
as §1

Chain of Tyk2 kinase domain (DH1) (P29597 897-1176): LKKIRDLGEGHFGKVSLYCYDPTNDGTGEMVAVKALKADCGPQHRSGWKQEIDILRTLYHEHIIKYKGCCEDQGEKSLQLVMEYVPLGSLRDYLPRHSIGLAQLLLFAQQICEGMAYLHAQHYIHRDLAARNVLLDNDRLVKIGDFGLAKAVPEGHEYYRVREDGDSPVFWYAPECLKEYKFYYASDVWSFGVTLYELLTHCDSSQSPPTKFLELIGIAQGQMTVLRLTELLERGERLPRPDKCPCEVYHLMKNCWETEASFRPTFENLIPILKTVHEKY
Chain of JAK2 kinase domain (JH1) (O60674 849-1124): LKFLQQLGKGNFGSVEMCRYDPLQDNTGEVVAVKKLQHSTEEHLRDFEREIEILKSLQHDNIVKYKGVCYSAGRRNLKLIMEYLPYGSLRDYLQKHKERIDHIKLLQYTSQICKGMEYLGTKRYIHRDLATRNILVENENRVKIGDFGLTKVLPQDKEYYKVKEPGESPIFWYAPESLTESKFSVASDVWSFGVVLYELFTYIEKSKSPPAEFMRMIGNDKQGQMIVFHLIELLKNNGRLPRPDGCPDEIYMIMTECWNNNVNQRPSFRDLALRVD
Chain of human TYK2 (JH2domain-pseudokinase) (P29597 556-888): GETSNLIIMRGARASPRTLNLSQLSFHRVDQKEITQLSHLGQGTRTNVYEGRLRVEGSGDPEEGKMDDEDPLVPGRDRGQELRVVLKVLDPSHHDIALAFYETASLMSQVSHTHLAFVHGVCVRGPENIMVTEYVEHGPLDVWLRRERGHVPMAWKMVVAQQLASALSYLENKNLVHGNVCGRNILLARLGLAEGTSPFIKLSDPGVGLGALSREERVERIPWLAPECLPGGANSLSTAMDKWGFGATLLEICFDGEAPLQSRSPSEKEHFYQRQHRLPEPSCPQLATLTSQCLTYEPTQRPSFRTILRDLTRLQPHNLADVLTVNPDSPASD

Turning to `CNc1cc(Nc2cccn(C3CCN(CCF)CC3)c2=O)nc2c(C(=O)N[C@H]3CC[C@H]3O)cnn12` [I-844], the inhibition – broadly, the change of the read-out against control, counted positive when it falls – at 10 µM was under 50% on JAK2 kinase domain (JH1) (10 μM compound, 10 μM ATP) and under 50% on Tyk2 kinase domain (DH1) (10 μM compound, 10 μM ATP). Further, the Kd (commonly the equilibrium constant for the complex coming apart) in test [1] is under 0.2 nM.

As to `CNc1cc(Nc2cccn([C@H]3CC[C@@H]3OC)c2=O)nc2c(C(=O)NC3CC3)cnn12` [I-1019], the inhibition at 10 µM at JAK2 kinase domain (JH1) (10 μM compound, 10 μM ATP) is under 50%; at Tyk2 kinase domain (DH1) (10 μM compound, 10 μM ATP) it was under 50%. This compound also yielded a Kd in test [1] of 0.2 to 1 nM.

Consider `CNc1cc(Nc2cccn([C@H]3CCCOC3)c2=O)nc2c(C(=O)N[C@H]3CCC[C@H](O)C3)cnn12` (stereo in doubt) [I-704, N-(3-hydroxycyclohexyl)-7-(methylamino)-5-((2-oxo-1-((R)-tetrahydro-2H-pyran-3-yl)-1,2-dihydropyridin-3-yl)amino)pyrazolo[1,5-a]pyrimidine-3-carboxamide], for which the inhibition at 10 µM on JAK2 kinase domain (JH1) (compound at 10 μM, ATP 10 μM) is under 50%; at Tyk2 kinase domain (DH1) (compound at 10 μM, ATP 10 μM) it was under 50%. This compound yielded a Kd in test [1] of 0.2 to 1 nM.

`CNc1cc(Nc2cccn([C@H]3CC[C@@H](N4CCOCC4)CC3)c2=O)nc2c(C(=O)N[C@H]3C[C@H]3F)cnn12` [I-304]: the inhibition at 10 µM at JAK2 kinase domain (JH1) (compound at 10 μM, ATP 10 μM) was under 50%; at Tyk2 kinase domain (DH1) (compound at 10 μM, ATP 10 μM) it was under 50%. The same compound had a Kd in test [1] of under 0.2 nM.

As for `CNc1cc(Nc2cccn([C@H]3CCCOC3)c2=O)nc2c(C(=O)N[C@H]3COC[C@H]3O)cnn12` [I-784], the “JAK2 JH1% Inhibition @ 10 μM” value at JAK2 kinase domain (JH1) (compound at 10 μM, ATP 10 μM) is “A (percent inhibition at 10 μM lower than 50)”. In test [1], this compound yielded a Kd of over 10 nM. Further, the “Tyk2 JH1% Inhibition @ 10 μM” value at Tyk2 kinase domain (DH1) (compound at 10 μM, ATP 10 μM) is on record as “A (percent inhibition at 10 μM lower than 50)”.

Consider `CNc1cc(Nc2cccn([C@H]3CCOC3)c2=O)nc2c(C(N)=O)cnn12` [I-196], for which the inhibition at 10 µM was under 50% at JAK2 kinase domain (JH1) (compound at 10 μM, ATP 10 μM) and under 50% on Tyk2 kinase domain (DH1) (compound at 10 μM, ATP 10 μM). The compound also gave a Kd in test [1] of 0.2 to 1 nM.

For the compound `CNc1cc(Nc2cccn(-c3ccc(C)nc3)c2=O)nc2c(C(=O)NC3CC3)cnn12` [I-765, N-cyclopropyl-5-((6′-methyl-2-oxo-2H-[1,3′-bipyridin]-3-yl)amino)-7-(methylamino)pyrazolo[1,5-a]pyrimidine-3-carboxamide], the inhibition at 10 µM on JAK2 kinase domain (JH1) (compound at 10 μM, ATP 10 μM) is under 50%; on Tyk2 kinase domain (DH1) (compound at 10 μM, ATP 10 μM), under 50%. In test [1], the Kd was under 0.2 nM.

In the case of `CNc1cc(-c2cn(C(C)C)c3ncccc23)nc2c(C(=O)N[C@H]3COC[C@H]3O)cnn12` (stereo in doubt) [I-764, N-(4-hydroxytetrahydrofuran-3-yl)-5-(1-isopropyl-1H-pyrrolo[2,3-b]pyridin-3-yl)-7-(methylamino)pyrazolo[1,5-a]pyrimidine-3-carboxamide], the inhibition at 10 µM on JAK2 kinase domain (JH1) (compound at 10 μM, ATP 10 μM) was under 50%; at Tyk2 kinase domain (DH1) (compound at 10 μM, ATP 10 μM), under 50%. In addition, the Kd in test [1] is under 0.2 nM.

For the compound `CNc1cc(Nc2cccnc2O[C@H]2C[C@@H](OC)C2)nc2c(C(=O)N[C@H]3C[C@H]3F)cnn12` [I-186], the inhibition at 10 µM is under 50% at JAK2 kinase domain (JH1) (compound at 10 μM, ATP 10 μM) and under 50% on Tyk2 kinase domain (DH1) (compound at 10 μM, ATP 10 μM). In test [1], this compound yielded a Kd of under 0.2 nM.

As to `CNc1cc(Nc2cccn(-c3cccc(F)c3)c2=O)nc2c(C(=O)NCC(C)CO)cnn12` (stereo not drawn) [I-947], the inhibition at 10 µM at JAK2 kinase domain (JH1) (10 μM compound, 10 μM ATP) was under 50%; on Tyk2 kinase domain (DH1) (10 μM compound, 10 μM ATP), under 50%. The Kd in test [1] is under 0.2 nM.

For the compound `CNc1cc(-c2cn(C(C)C)c3ncc(C)cc23)nc2c(C(=O)NC3CC3)cnn12` [I-252], the inhibition at 10 µM on JAK2 kinase domain (JH1) (compound at 10 μM, ATP 10 μM) is under 50%; at Tyk2 kinase domain (DH1) (compound at 10 μM, ATP 10 μM) it was under 50%. Further, the Kd in test [1] was in the range of 1 to 10 nM.

For `CNc1cc(Nc2cccnc2O[C@@H]2CCOC2)nc2c(C(=O)NC3CCC3)cnn12` [I-171], the inhibition at 10 µM at JAK2 kinase domain (JH1) (compound at 10 μM, ATP 10 μM) is under 50%; at Tyk2 kinase domain (DH1) (compound at 10 μM, ATP 10 μM) it was under 50%. In test [1], the Kd fell in the range of 0.2 to 1 nM.

With `CNc1cc(Nc2cccn(-c3ccccn3)c2=O)nc2c(C(=O)N[C@@H]3CC[C@@H]3O)cnn12` [I-806], the “JAK2 JH1% Inhibition @ 10 μM” value on JAK2 kinase domain (JH1) (compound at 10 μM, ATP 10 μM) was “A (percent inhibition at 10 μM lower than 50)”. The Kd in test [1] is 0.2 to 1 nM. The “Tyk2 JH1% Inhibition @ 10 μM” value at Tyk2 kinase domain (DH1) (compound at 10 μM, ATP 10 μM) is “A (percent inhibition at 10 μM lower than 50)”.

As for `CNc1cc(Nc2cccnc2OC2COC2)nc2c(C(=O)NC3CC3)cnn12` [I-228], the inhibition at 10 µM was under 50% on JAK2 kinase domain (JH1) (compound at 10 μM, ATP 10 μM) and under 50% at Tyk2 kinase domain (DH1) (compound at 10 μM, ATP 10 μM). This compound gave a Kd in test [1] of 1 to 10 nM.
